Reference: patent US6921775B2, “Methods for modulating brain damage” (Children's Medical Center Corporation, priority 2001, dated 2005)

Columns and labels:
P7 rat pups = assay: Hypoxia/ischemia (unilateral carotid ligation followed by hypoxia, 6% O2 for one hour) selective white matter injury model; type: in vivo
From the text: The methods used in this example are described in Follett et al. (2000) J. Neurosci. 20:9235-9241, incorporated by reference herein.
Because the white matter of premature infants at high risk for hypoxic/ischemic white matter injury is also populated with immature OLs (Kinney and Back, 1998), this age was chosen to deliver the hypoxic/ischemic insult. […] Injury was limited to the white matter without evidence of injury to cortical neurons. […] Ipsilateral injury included the loss of MBP expression in the OL processes extending into the cortex and decreased thickness of the periventricular white matter and external capsule in four of nine rats.
P7 rat pups underwent unilateral carotid ligation followed by hypoxia (6% O2 for one hour). Following hypoxia, littermates were treated with either topiramate (30 mg/kg, i.p., q12 h, 4 doses, n=12) or vehicle (n=12). 48 hours after hypoxia/ischemia, pups were evaluated with in situ end labeling (ISEL) for the presence of cell death in white matter. Briefly, coronal sections were labeled for the presence of single-stranded DNA fragments as a sensitive indicator of cell death. ISEL positive cells in white matter ipsilateral to the ligation in each of three coronal sections (at the level of the anterior hippocampus, mid-dorsal hippocampus, and posterior dorsal hippocampus) were counted and a mean was taken for each rat.
96 hours post-ischemia/hypoxia, pups were evaluated with ICC for loss of MBP expression ipsilateral to the ligation as compared to the contralateral side. Coronal sections were evaluated by immunocytochemistry with a monoclonal against MBP, and detected with fluorescent secondary antibody. Three sections were evaluated for each rat: the anterior hippocampus, the mid-dorsal hippocampus, and the posterior dorsal hippocampus. Lesion severity was assigned a value on a scale from 0 to 3 as follows: 0 if ipsilateral and colateral hemispheres were similar; 1 if ipsilateral loss was limited to cortical processes; 2, if loss of staining included thinning of the periventricular white matter; and 3 if white matter tracts included a full thickness loss of staining in the capsule. A mean severity score was obtained for immature and mature OL markers in each rat.
Litters of male Long Evans rat pups (Charles River Laboratories, Wilmington, Mass.) were raised with dams in a temperature-controlled environment with 12 hour light-dark cycles. Pups underwent carotid ligation and hypoxia at post-natal-day (P)7. They were recovered on a thermal blanket at 33-34° C. (baseline temperature for P7 rats) and returned to their dam for 48-96 hours prior to sacrifice. Treated pups were given intra-peritoneal (i.p.) injections of 0.1 cc solutions of topiramate, NBQX or vehicle every 12 hours for 48 hours at P7 and P8 for treatment, control and normal development studies.
Hypoxic/ischemic injury was generated in rats by unilateral carotid ligation followed by hypoxia (6% for 1 hour). […] The methods used in this example are described in Follett et al (2000) J. Neurosci. 20:9235-9241, incorporated by reference herein.
Briefly, rats were anesthetized with ether and the proximal internal carotid artery was isolated from the sympathetic chain and ligated. Animals requiring prolonged sedation due to technical issues were removed from the study. The animals were recovered one hour, then placed in a sealed chamber infused with nitrogen to a level of 6% O2, with body temperature maintained at 33-34° C. throughout. […] Pups were allowed a 1-2 hour period of recovery after hypoxia then returned to their dam. Pups were randomized into treatment and control groups by weight to insure no size variation existed between the subjects and controls to start. Following hypoxia animals in the treatment group were given i.p. injections of topirmate (10, 30 or 50 mg/kg in 0.1 cc PBS) or equivalent volume of saline repeat treatment every 12 hours for 48 hours. […]

OL precursor cells = assay: Kainate-induced excitotoxicity in OL precursor cultures (trypan blue cell viability); type: cell-based, rat; details: 300 μM kainate; for concentration giving significant reduction of kainate-induced cell death: cell survival assessed 24 hr later
Experimental: Primary oligodendrocyte precursor cells were isolated from mixed glial cultures of the forebrains of newborn Sprague-Dawley rats using a selective detachment procedure as described in detail elsewhere (McCarthy and de Vellis, 1980; Back et al., 1998), and further purified by differential adhesion (Back et al., 1998). Precursor cells were maintained in a chemically-defined medium (CDM) supplemented with recombinant human platelet derived growth factor-AA (PDGF, 10 ng/ml) and basic fibroblast growth factor (bFGF, 10 ng/ml). The CDM was Dulbecco Modified Eagle's Medium (DMEM) containing D-glucose (25 mM), L-glutamine (4 mM), sodium pyruvate (1 mM), human apo-transferrin (50 μg/ml), bovine pancreatic insulin (5 μg/ml), sodium selenium (30 nM), hydrocortisone (10 nM), D-biotin (10 nM), and bovine serum albumin (BSA, 1 mg/ml). All chemicals were from Sigma. Precursor cells were maintained in the presence of growth factors (PDGF+bFGF) by refeeding with fresh medium every 48 hr for 7 days, to promote cell proliferation and prevent differentiation (Bogler et al., 1990). Experiments were performed with cultures maintained in CDM without the supplemental growth factors. These cultures were routinely characterized by immunochemical detection of cell-specific markers as described before (Back et al., 1998). Cultures at the beginning of experiments usually consisted of approximately 90% A2B5^+ oligodendrocyte precursors and less than 5% glial fibrillary acidic protein (GFAP)-positive astrocytes. Cells were plated on poly-DL-ornithine-coated 24-well plates for cell viability assays and on coated glass coverslips for immunocytochemistry, proliferation studies, and lineage analysis. Kainic acid (Sigma-RBI) were first dissolved in 0.1N HCl, and cyclothiazide (Sigma) in 0.1N NaOH, then added to culture medium to the desired final concentration. The pH of the culture media was maintained at 7.4. Topiramate (RWJ Pharmaceutical Research Institute) and NBQX (Sigma-RBI) were directly dissolved in culture medium and applied 10 min prior to exposure of the cells to kainate or oxygen-glucose deprivation (OGD). Following exposure to kainate or OGD for 24 hr, cell death was quantitatively assessed using the trypan blue exclusion method (Perry et al., 1997). Cells in 5-7 adjacent fields (×200) per well were counted to determine cell survival. At least 1000 cells per condition were counted in control cultures. The mean±SEM values for each experimental group were obtained from at least three separate experiments, and each was performed in triplicate. […] OGD has been previously shown to cause non-NMDA receptor-mediated ischemic cell death in a similar culture model (Fern and Moller, 2000). […] Cell survival was assessed 24 hr later.

[1] = P7 rats, topiramate 30 mg/kg i.p. q12 h 4 doses, 96 hours

SMILES: NS(=O)(=O)c1cccc2c1c([N+](=O)[O-])cc1nc(O)c(O)nc12 [NBQX, 2,3-Dioxo-6-nitro-1,2,3,4-tetrahydrobenzo[f]quinoxaline-7-sulphonamide]
- white matter injury, semiquantitative lesion severity by MBP expression (P7 rat pups; P7 rats, NBQX post-treatment at termination of hypoxia, 96 hours after insult, vs vehicle-treated controls, p<0.001): significant attenuation of white matter injury
- white matter injury, semiquantitative lesion severity by O1 expression (P7 rat pups; P7 rats, NBQX post-treatment at termination of hypoxia, 96 hours after insult, vs vehicle-treated controls, p<0.005): significant attenuation of white matter injury
- treated pups with no detectable injury (P7 rat pups; P7 rats, NBQX post-treatment, 96 hours after insult): three of seven
- rectal temperature, treated vs untreated groups (P7 rat pups; P7 rats, NBQX treatment initiated after hypoxia): No difference in rectal temperatures
- protection against kainate-induced cell death at 50 μM (OL precursor cells; 50 μM NBQX, 24 hr): fully protective
- concentration giving significant reduction of kainate-induced cell death (OL precursor cells): ≥ 10 µM

SMILES: CC1(C)O[C@@H]2[C@@H](CO[C@@]3(COS(N)(=O)=O)OC(C)(C)O[C@@H]23)O1 [topiramate]
- protective effect at the lower dose (MBP injury) (P7 rat pups; Example 3, 10 mg/kg per dose (40 mg/kg divided over 48 hours)): less efficacy
- lesion severity, blinded semi-quantitative analysis of MBP expression (P7 rat pups; Example 3, 30 mg/kg topiramate every 12 hours for 48 hours, 96 hours after hypoxia, vs vehicle p<0.01): significant attenuation of lesion severity
- effect at the higher dose (MBP injury) (P7 rat pups; Example 3, 50 mg/kg per dose (200 mg/kg divided over 48 hours)): question of possible toxicity
- body temperature by rectal probe, treatment vs control groups (P7 rat pups; Example 3, P7 rats, monitored at each stage): did not differ between treatment and control groups
- dose with maximal protective effect (MBP injury) (P7 rat pups; Example 3, partial dose response 10, 30, 50 mg/kg every 12 hours for 48 hours): 30 mg/kg/dose
- pups with less than 20 ISEL positive cells per section in subcortical white matter ipsilateral to the ligation (P7 rat pups; P7 rats, topiramate 30 mg/kg i.p. q12 h 4 doses, 48 hours after hypoxia/ischemia): Five out of six
- white matter cell death (ISEL positive cells) (P7 rat pups; P7 rats, topiramate 30 mg/kg i.p. q12 h 4 doses, 48 hours after hypoxia/ischemia, p<0.03): significant decreases in white matter cell death
- pups with no appreciable loss of MBP expression ipsilateral to the carotid ligation (P7 rat pups; [1]): two out of five
- pups with severe injury (MBP loss) (P7 rat pups; [1]): None of the topiramate treated pups exhibited severe injury
- loss of MBP expression ipsilateral to the ligation (P7 rat pups; P7 rats, topiramate 30 mg/kg i.p. q12 h 4 doses, 96 hours post-ischemia/hypoxia, p=0.04): significant attenuation of MBP loss
- concentration giving significant reduction of kainate-induced cell death (OL precursor cells): ≥ 30 µM
- cell survival (OL precursor cells; topiramate 50-100 μM, 24 hr): approximately 70%
